In patent publication US20140031296A1, “NEW SYNTHETIC PEPTIDES AND THEIR USE” (PERGAMUM AB, priority 2011, published 2014):
“Also recorded” adds a separate entry of the source.

Columns and labels:
MRSA (CCUG 41879) [1] = experiment: MMC99 assay, MRSA; type: cell-based
Procedure: (§1) The antimicrobial effects of the peptides 232 (SEQ ID NO: 78), and 220 (SEQ ID NO:67) were analysed by MMC99 (minimal microbicidal concentration) assay against S. aureus (CCUG 1800), MRSA (CCUG 41879), P. aeruginosa (ATCC 15442), E. coli (CCUG 31246), S. pyogenes (CCUG 4207), P. acnes (CCUG 1794T), S. epidermidis (ATCC12228), K. pneumoniae (ATCC 13883), A. baumannii (ATCC 19606), and C. albicans (ATCC 64549). The peptides were purchased from Biopeptide Company (San Diego, Calif., USA) and Bachem AG (Bubendorf, Switzerland) and results are presented in Table 8A and 8B respectively.
(§2) Peptides were serially diluted in two different assay medium, 1% BHI medium (brain-heart infusion medium) or 50% heat inactivated simulated wound fluid (SWF), and thereafter incubated with the microorganisms for 2 hours. Drops of the suspension were placed on blood agar plates. The MMC99 values, i.e. the lowest peptide concentration needed to achieve a 99% reduction of viable microorganisms, were recorded. As presented in Table 8, all the peptides have the ability to kill microorganisms frequently appearing in infections.

MRSA (CCUG 41879) [2] = experiment: In vivo antimicrobial effect in excision wound model in rats; parameters: species or system rat; conditions: peptide in H2O 0.1, 0.5 and 2 mg/ml, single administration, 2 hours
Source text: (§3) FIG. 4. Dose-response effect of peptide 232 (SEQ ID NO 78)(A) and peptide 220 (SEQ ID NO 67)(B) on bacterial colonization of infected excision wounds in rats. […] Results are presented as relative bacterial survival (%) compared to control group±SEM (n=15 wounds). Statistical significance was estimated by Student's t test. *=p<0.05, **=p<0.01, ***=p<0.001.
The in vivo antimicrobial effects of the peptide 232 (SEQ ID NO: 78), and the peptide 220 (SEQ ID NO:67) were investigated in an excision wound model in rats. The wounds were inoculated with methicillin resistant S. aureus (MRSA) for two hours, followed by a single administration of peptide or control (H2O) for two hours before termination and harvest of the bacteria.

S. pyogenes (CCUG 4207) = experiment: MMC99 assay, S. pyogenes; type: cell-based
Procedure: as §1, §2

S. aureus = experiment: Antimicrobial effect in infected wounds, ex vivo model on pig skin; conditions: S. aureus in PBS/serum (50/50), peptide in H2O 0.1, 0.5 and 2 mg/ml, single administration, 4 hours
Source text: as §3, with “FIG. 5. Dose response” for “FIG. 4. Dose-response”, “effect of,” for “effect of”, “infected” for “infected excision”, “in pig skin.” for “in rats.”, “group±SEM (n=10” for “group±SEM (n=15”
The antimicrobial effects of the peptide 232 (SEQ ID NO: 78), and the peptide 220 (SEQ ID NO:67) were investigated in an ex vivo model on pig skin. The wounds were inoculated with S. aureus in the presence of PBS/Serum 50/50. Two hours after inoculation the wounds were treated with a single administration of the peptide or placebo (H2O). Four hours after the treatment bacteria were harvested and viable counts of each wound were determined.

S. aureus (CCUG 1800) = experiment: Minimal microbicidal concentration (MMC99) assay, S. aureus; type: cell-based; conditions: for MMC99: S. aureus, Example 3; for MMC99 μM in 1% BHI medium / MMC99 μM in 50% SWF: screen 2, 2 hours; for MMC99 μM in 50% SWF: 50% heat inactivated simulated wound fluid
Procedure: Antimicrobial Activity was Measured as Bactericidal Effect on S. aureus Using Minimal Microbicidal Concentration, MMC99, Assay)
S. aureus (#1800; CCUG, Gothenburg, Sweden) cultured on blood-agar plates [Columbia agar (Oxoid, Basingstoke, UK) supplemented with 5% defibrinated horse blood (National Veterinary Institute (SVA), Uppsala, Sweden)] were transferred to brain heart infusion broth (3.7% BHI; Difco, BD Diagnostics, Franklin Lakes, N.J., USA) and incubated in a shaker at 250 rpm+37° C. over night. The culture was thereafter be diluted 1:10 in fresh BHI broth and incubated for additional two hours to reach log-phase growth. The bacteria were pelleted and suspended in 1% BHI medium (BHI broth diluted 100 times in ultra-pure water) to a concentration of 10^7 bacteria/ml as estimated by measuring optical density at 600 nm. Peptides were serially diluted by two-fold steps from 160 μM to 1.25 μM in 1% BHI medium. The peptides (100 μl) were thereafter incubated with bacteria (5 μl á 10^7 bact./ml) for 2 hours at +37° C. Drops (5 μl) of the suspension were placed on blood agar plates. The blood agar plates were incubated over night at +37° C. The MMC99 values, i.e. the lowest peptide concentration needed to achieve a 99% reduction of viable bacteria, were recorded (Table 3). The concentration of the bacterial suspension used in the assay was confirmed by viable counts on blood agar plates.
S. aureus (#1800; CCUG, Gothenburg, Sweden) cultured on blood-agar plates [Columbia agar (Oxoid, Basingstoke, UK) supplemented with 5% defibrinated horse blood (National Veterinary Institute (SVA), Uppsala, Sweden)] were transferred to brain heart infusion broth (3.7% BHI; Difco, BD Diagnostics, Franklin Lakes, N.J., USA) and incubated in a shaker at 250 rpm+37° C. over night. The culture was thereafter be diluted 1:10 in fresh BHI broth and incubated for additional two hours to reach log-phase growth. The bacteria were pelleted and suspended in 1% BHI medium (BHI broth diluted 100 times in ultra-pure water) to a final concentration of 10^7 bacteria/ml as estimated by measuring optical density at 600 nm.
Peptides were serially diluted by two-fold steps from 400 μM to 0.78 μM in either 1% BHI medium or in 50% heat inactivated simulated wound fluid [SWF, containing 1 part 0.1% peptone (Oxoid, Basingstoke, UK) in saline and 1 part fetal bovine serum, diluted 2 times in ultra-pure water].
The peptides (100 μl) were thereafter incubated with bacteria (5 μl a 10^7 bact./ml) for 2 hours at +37° C. Drops (5 μl) of the suspension were placed on blood agar plates. The blood agar plates were incubated over night at +37° C. The MMC99 values, i.e. the lowest peptide concentration needed to achieve a 99% reduction of viable bacteria were recorded (Table 6). The concentration of the bacterial suspension used in the assay was confirmed by viable counts on blood agar plates.
as §1
as §2, with “infections. […]” for “infections.”

Sequence | MMC99 (MRSA (CCUG 41879) [1]; 1% BHI) [µg/mL] | MMC99 (MRSA (CCUG 41879) [1]; 50% SWF) [µg/mL] | bacterial colonization of infected excision wounds (bacterial counts vs control) (MRSA (CCUG 41879) [2]) | MMC99 (S. pyogenes (CCUG 4207); 1% BHI) [µg/mL] | MMC99 (S. pyogenes (CCUG 4207); 50% SWF) [µg/mL] | bacterial colonization of infected wounds in pig skin (bacterial counts vs control) (S. aureus) | MMC99 (S. aureus (CCUG 1800); 1% BHI) [µg/mL] | MMC99 (S. aureus (CCUG 1800); 50% SWF) [µg/mL] | MMC99 μM in 1% BHI medium (S. aureus (CCUG 1800)) [µM] | MMC99 μM in 50% SWF (S. aureus (CCUG 1800)) [µM]
QSLARKLFQWLRNLRKVA [Peptide 220] | 6 | 200 | significant reduction in bacterial counts; also recorded: pronounced antimicrobial effect | <3 | 50 | significant reduction in bacterial counts; also recorded: highly effective anti-infectious agents when applied locally | 7 | 28 | 12.5 | 25
RRLWRRWMRKVL [Peptide 232] | 6 | 100 | significant reduction in bacterial counts; also recorded: pronounced antimicrobial effect | <3 | >200 | significant reduction in bacterial counts; also recorded: highly effective anti-infectious agents when applied locally | 5 | 44 | 12.5 | 25
